From ChEMBL document CHEMBL1201861, “Genomics of Drug Sensitity in Cancer screening data, Wellcome Trust Sanger Institute”

What was measured:
Assay in all cases: cells
NCI-H1693 = format: functional, cell-based, Homo sapiens; details: Homo sapiens, NCI-H1693;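 further: growth inhibition of the human cell line, read out with a cell viability assay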
Description: SANGER: Inhibition of human NCI-H1693 cell growth in a cell viability assay.

no-10 = format: functional, cell-based, Homo sapiens; details: Homo sapiens;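 further: growth inhibition of no-10 cells, read out with a cell viability assay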
Description: SANGER: Inhibition of human no-10 cell growth in a cell viability assay.

SCC-4 = format: functional, cell-based, Homo sapiens; details: Homo sapiens, SCC-4;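 further: growth inhibition of human SCC-4 cells, read out as cell viability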
Description: SANGER: Inhibition of human SCC-4 cell growth in a cell viability assay.

RXF 393 = format: functional, cell-based; details: Homo sapiens;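 further: growth inhibition of human RXF 393 cells, read out with a cell viability assay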
Description: SANGER: Inhibition of human RXF393 cell growth in a cell viability assay.

NCI-H510A = format: functional, cell-based; details: Homo sapiens;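 further: growth inhibition of NCI-H510A cells, read out with a cell viability assay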
Description: SANGER: Inhibition of human NCI-H510A cell growth in a cell viability assay.

NCI-H1838 = format: functional, cell-based, Homo sapiens; details: Homo sapiens, NCI-H1838;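 further: growth inhibition of NCI-H1838 cells, determined with a cell viability readout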
Description: SANGER: Inhibition of human NCI-H1838 cell growth in a cell viability assay.

SW1710 = format: functional, cell-based, Homo sapiens; details: Homo sapiens, SW1710;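 further: growth inhibition of SW1710 cells, determined with a cell viability assay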
Description: SANGER: Inhibition of human SW1710 cell growth in a cell viability assay.

KG-1 = format: functional, cell-based; details: Homo sapiens;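 further: growth inhibition of KG-1 cells, read out by a cell viability assay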
Description: SANGER: Inhibition of human KG-1 cell growth in a cell viability assay.

COLO-741 = format: functional, cell-based, Homo sapiens; details: Homo sapiens, COLO-741
Description: SANGER: Inhibition of human COLO-741 cell growth in a cell viability assay.

Huh-7 = format: functional, cell-based, Homo sapiens; details: Homo sapiens, Huh-7;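 further: HuH-7 cell growth inhibition, read out with a cell viability assay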
Description: SANGER: Inhibition of human HuH-7 cell growth in a cell viability assay.

SCC-9 = format: functional, cell-based, Homo sapiens; details: Homo sapiens, SCC-9;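 further: Read-out is a cell viability assay, with values giving inhibition of cell growth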
Description: SANGER: Inhibition of human SCC-9 cell growth in a cell viability assay.

RVH-421 = format: functional, cell-based, Homo sapiens; details: Homo sapiens, RVH-421
Description: SANGER: Inhibition of human RVH-421 cell growth in a cell viability assay.

HEC-1 = format: functional, cell-based, Homo sapiens; details: Homo sapiens, HEC-1;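 further: growth inhibition of the cell line, read out with a cell viability assay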
Description: SANGER: Inhibition of human HEC-1 cell growth in a cell viability assay.

CAMA-1 = format: functional, cell-based, Homo sapiens; details: Homo sapiens, CAMA-1;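 further: growth inhibition of CAMA-1 cells, read out with a cell viability assay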
Description: SANGER: Inhibition of human CAMA-1 cell growth in a cell viability assay.

NKM-1 = format: functional, cell-based; details: Homo sapiens;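 further: growth inhibition of NKM-1 cells, read out with a cell viability assay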
Description: SANGER: Inhibition of human NKM-1 cell growth in a cell viability assay.

MC116 = format: functional, cell-based; details: Homo sapiens;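 further: growth inhibition of MC116 cells, read out with a cell viability assay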
Description: SANGER: Inhibition of human MC116 cell growth in a cell viability assay.

A101D = format: functional, cell-based, Homo sapiens; details: Homo sapiens, A101D;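 further: growth inhibition of the cell line, measured with a viability assay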
Description: SANGER: Inhibition of human A101D cell growth in a cell viability assay.

MHH-PREB-1 = format: functional, cell-based; details: Homo sapiens;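 further: cell viability assay measuring inhibition of proliferation of human MHH-PREB-1 cells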
Description: SANGER: Inhibition of human MHH-PREB-1 cell growth in a cell viability assay.

AGS = format: functional, cell-based, Homo sapiens; details: Homo sapiens, AGS;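 further: growth inhibition of AGS cells, determined with a cell viability assay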
Description: SANGER: Inhibition of human AGS cell growth in a cell viability assay.

EGI-1 = format: functional, cell-based, Homo sapiens; details: Homo sapiens, EGI-1;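 further: cell viability readout used to gauge growth inhibition of EGI-1 cells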
Description: SANGER: Inhibition of human EGI-1 cell growth in a cell viability assay.

SAOS-2 = format: functional, cell-based, Homo sapiens; details: Homo sapiens, SAOS-2;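 further: growth inhibition of human Saos-2 cells determined by a cell viability assay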
Description: SANGER: Inhibition of human Saos-2 cell growth in a cell viability assay.

LS-513 = format: functional, cell-based, Homo sapiens; details: Homo sapiens, LS-513
Description: SANGER: Inhibition of human LS-513 cell growth in a cell viability assay.

SHP77 = format: functional, cell-based, Homo sapiens, SHP-77; details: Homo sapiens, SHP77;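 further: growth inhibition of human SHP-77 cells measured by a cell viability assay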
Description: SANGER: Inhibition of human SHP-77 cell growth in a cell viability assay.

NCI-H28 = format: functional, cell-based, Homo sapiens; details: Homo sapiens, NCI-H28;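 further: growth inhibition of human NCI-H28 cells, read out as cell viability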
Description: SANGER: Inhibition of human NCI-H28 cell growth in a cell viability assay.

no-11 = format: functional, cell-based, Homo sapiens; details: Homo sapiens;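 further: growth inhibition of human NO-11 cells, read out with a cell viability assay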
Description: SANGER: Inhibition of human no-11 cell growth in a cell viability assay.

U-87 MG = format: functional, cell-based, U-87MG ATCC; details: Homo sapiens;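 further: growth inhibition of the cells measured with a viability assay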
Description: SANGER: Inhibition of human U-87-MG cell growth in a cell viability assay.

NCI-H520 = format: functional, cell-based, Homo sapiens; details: Homo sapiens, NCI-H520;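 further: growth inhibition of NCI-H520 cells, measured by a cell viability assay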
Description: SANGER: Inhibition of human NCI-H520 cell growth in a cell viability assay.

BT-20 = format: functional, cell-based, Homo sapiens; details: Homo sapiens, BT-20;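 further: cell viability assay measuring suppression of growth in human BT-20 cells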
Description: SANGER: Inhibition of human BT-20 cell growth in a cell viability assay.

NCI-H650 = format: functional, cell-based, Homo sapiens; details: Homo sapiens, NCI-H650;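 further: growth inhibition of NCI-H650 cells, read out by a viability assay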
Description: SANGER: Inhibition of human NCI-H650 cell growth in a cell viability assay.

HCE-T = format: functional, cell-based, Homo sapiens; details: Homo sapiens, HCE-T;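 further: cell viability assay read-out, reporting inhibition of HCE-T cell growth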
Description: SANGER: Inhibition of human HCE-T cell growth in a cell viability assay.

SW48 = format: functional, cell-based, Homo sapiens; details: Homo sapiens, SW48;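 further: growth inhibition of SW48 cells, read out with a cell viability assay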
Description: SANGER: Inhibition of human SW48 cell growth in a cell viability assay.

LK-2 = format: functional, cell-based, Homo sapiens; details: Homo sapiens, LK-2;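 further: growth inhibition of LK-2 cells, read out with a viability assay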
Description: SANGER: Inhibition of human LK-2 cell growth in a cell viability assay.

8305C = format: functional, cell-based, Homo sapiens; details: Homo sapiens, 8305C
Description: SANGER: Inhibition of human 8305C cell growth in a cell viability assay.

NTERA-2-cl-D1 = format: functional, cell-based, Homo sapiens; details: Homo sapiens, NTERA-2-cl-D1;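 further: inhibition of cell growth, measured with a cell viability assay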
Description: SANGER: Inhibition of human NTERA-S-cl-D1 cell growth in a cell viability assay.

EFM-19 = format: functional, cell-based, Homo sapiens; details: Homo sapiens, EFM-19;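 further: growth inhibition of human EFM-19 cells, measured in a cell viability assay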
Description: SANGER: Inhibition of human EFM-19 cell growth in a cell viability assay.

NCI-H747 = format: functional, cell-based; details: Homo sapiens;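 further: growth inhibition of human NCI-H747 cells, read out by a cell viability assay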
Description: SANGER: Inhibition of human NCI-H747 cell growth in a cell viability assay.

U-266 = format: functional, cell-based; details: Homo sapiens
Description: SANGER: Inhibition of human U-266 cell growth in a cell viability assay.

RKO = format: functional, cell-based, Homo sapiens; details: Homo sapiens, RKO;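 further: growth inhibition of human RKO cells, read out with a cell viability assay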
Description: SANGER: Inhibition of human RKO cell growth in a cell viability assay.

CGTH-W-1 = format: functional, cell-based, Homo sapiens; details: Homo sapiens, CGTH-W-1;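 further: growth inhibition of human CGTH-W-1 cells measured by cell viability assay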
Description: SANGER: Inhibition of human CGTH-W-1 cell growth in a cell viability assay.

CAL-27 = format: functional, cell-based, Homo sapiens; details: Homo sapiens, CAL-27;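 further: Viability-based readout, IC50 reflecting inhibition of CAL-27 cell growth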
Description: SANGER: Inhibition of human CAL-27 cell growth in a cell viability assay.

M14 = format: functional, cell-based, Homo sapiens; details: Homo sapiens, M14;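 further: growth inhibition of M14 cells, read out with a cell viability assay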
Description: SANGER: Inhibition of human M14 cell growth in a cell viability assay.

CTB-1 = format: functional, cell-based; details: Homo sapiens
Description: SANGER: Inhibition of human CTB-1 cell growth in a cell viability assay.

Lu-65 = format: functional, cell-based; details: Homo sapiens;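 further: growth inhibition of Lu-65 cancer cells, read out by a cell viability assay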
Description: SANGER: Inhibition of human LU-65 cell growth in a cell viability assay.

HDLM-2 = format: functional, cell-based; details: Homo sapiens;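 further: cell viability assay measuring suppression of HDLM-2 proliferation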
Description: SANGER: Inhibition of human HDLM-2 cell growth in a cell viability assay.

SW1463 = format: functional, cell-based, Homo sapiens; details: Homo sapiens, SW1463;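 further: growth inhibition of SW1463 cells, determined with a cell viability assay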
Description: SANGER: Inhibition of human SW1463 cell growth in a cell viability assay.

NCI-H2342 = format: functional, cell-based; details: Homo sapiens;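 further: growth inhibition of the cancer cell line, determined with a cell viability assay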
Description: SANGER: Inhibition of human NCI-H2342 cell growth in a cell viability assay.

NCI-N87 = format: functional, cell-based, Homo sapiens; details: Homo sapiens, NCI-N87;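 further: growth inhibition of human NCI-N87 cells, read out with a cell viability assay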
Description: SANGER: Inhibition of human NCI-N87 cell growth in a cell viability assay.

CaR-1 = format: functional, cell-based, Homo sapiens; details: Homo sapiens, CaR-1;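 further: growth inhibition of human CaR-1 cancer cells, read out with a cell viability assay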
Description: SANGER: Inhibition of human CaR-1 cell growth in a cell viability assay.

MKN-1 = format: functional, cell-based, Homo sapiens; details: Homo sapiens, MKN-1;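 further: growth inhibition of human MKN1 cells, read out by a cell viability measurement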
Description: SANGER: Inhibition of human MKN1 cell growth in a cell viability assay.

SW13 = format: functional, cell-based, Homo sapiens; details: Homo sapiens, SW13;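 further: IC50 is inhibition of SW13 cell growth, read out with a cell viability assay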
Description: SANGER: Inhibition of human SW13 cell growth in a cell viability assay.

ES5 = format: functional, cell-based, Homo sapiens; details: Homo sapiens, ES5;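 further: growth inhibition of human ES5 cells, read out by a cell viability assay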
Description: SANGER: Inhibition of human ES5 cell growth in a cell viability assay.

RCC10RGB = format: functional, cell-based, Homo sapiens; details: Homo sapiens, RCC10RGB;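 further: growth inhibition of human RCC10RGB cells, read out by a cell viability assay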
Description: SANGER: Inhibition of human RCC10RGB cell growth in a cell viability assay.

SMILES: Nc1ccn([C@@H]2O[C@H](CO)[C@@H](O)[C@@H]2O)c(=O)n1 [CYTARABINE]
- IC50 (NCI-H1693): > 2 µM
- IC50 (no-10): > 2 µM
- IC50 (SCC-4): 0.965 µM
- IC50 (RXF 393): 0.7 µM
- IC50 (NCI-H510A): 0.0683 µM
- IC50 (NCI-H1838): > 2 µM
- IC50 (SW1710): 1.73 µM
- IC50 (KG-1): 1.16 µM
- IC50 (COLO-741): > 2 µM
- IC50 (Huh-7): > 2 µM
- IC50 (SCC-9): > 2 µM
- IC50 (RVH-421): > 2 µM
- IC50 (HEC-1): 1.79 µM
- IC50 (CAMA-1): > 2 µM
- IC50 (NKM-1): 1.06 µM
- IC50 (MC116): 1.28 µM
- IC50 (A101D): > 2 µM
- IC50 (MHH-PREB-1): 0.533 µM
- IC50 (AGS): 0.918 µM
- IC50 (EGI-1): 1.11 µM
- IC50 (SAOS-2): 0.682 µM
- IC50 (LS-513): 0.38 µM
- IC50 (SHP77): > 2 µM
- IC50 (NCI-H28): 1.82 µM
- IC50 (no-11): > 2 µM
- IC50 (U-87 MG): 1.74 µM
- IC50 (NCI-H520): > 2 µM
- IC50 (BT-20): > 2 µM
- IC50 (NCI-H650): > 2 µM
- IC50 (HCE-T): > 2 µM
- IC50 (SW48): 0.366 µM
- IC50 (LK-2): 0.461 µM
- IC50 (8305C): > 2 µM
- IC50 (NTERA-2-cl-D1): 0.159 µM
- IC50 (EFM-19): > 2 µM
- IC50 (NCI-H747): > 2 µM
- IC50 (U-266): > 2 µM
- IC50 (RKO): 0.599 µM
- IC50 (CGTH-W-1): 0.182 µM
- IC50 (CAL-27): 1.93 µM
- IC50 (M14): 0.632 µM
- IC50 (CTB-1): 0.0344 µM
- IC50 (Lu-65): > 2 µM
- IC50 (HDLM-2): > 2 µM
- IC50 (SW1463): > 2 µM
- IC50 (NCI-H2342): > 2 µM
- IC50 (NCI-N87): > 2 µM
- IC50 (CaR-1): > 2 µM
- IC50 (MKN-1): 1.74 µM
- IC50 (SW13): 0.476 µM
- IC50 (ES5): 0.243 µM
- IC50 (RCC10RGB): > 2 µM

SMILES: Cc1cnc(-c2cnc(NCCNc3ccc(C#N)cn3)nc2-c2ccc(Cl)cc2Cl)[nH]1 [LADUVIGLUSIB]
- IC50 (NCI-H1693): > 2.56 µM
- IC50 (no-10): > 2.56 µM
- IC50 (SCC-4): > 2.56 µM
- IC50 (RXF 393): > 2.56 µM
- IC50 (NCI-H510A): > 2.56 µM
- IC50 (NCI-H1838): > 2.56 µM
- IC50 (SW1710): > 2.56 µM
- IC50 (KG-1): > 2.56 µM
- IC50 (COLO-741): > 2.56 µM
- IC50 (Huh-7): > 2.56 µM
- IC50 (SCC-9): > 2.56 µM
- IC50 (RVH-421): > 2.56 µM
- IC50 (HEC-1): > 2.56 µM
- IC50 (CAMA-1): > 2.56 µM
- IC50 (NKM-1): > 2.56 µM
- IC50 (MC116): > 2.56 µM
- IC50 (A101D): > 2.56 µM
- IC50 (MHH-PREB-1): > 2.56 µM
- IC50 (AGS): > 2.56 µM
- IC50 (EGI-1): > 2.56 µM
- IC50 (SAOS-2): > 2.56 µM
- IC50 (LS-513): > 2.56 µM
- IC50 (SHP77): > 2.56 µM
- IC50 (NCI-H28): > 2.56 µM
- IC50 (no-11): > 2.56 µM
- IC50 (U-87 MG): > 2.56 µM
- IC50 (NCI-H520): > 2.56 µM
- IC50 (BT-20): > 2.56 µM
- IC50 (NCI-H650): > 2.56 µM
- IC50 (HCE-T): > 2.56 µM
- IC50 (SW48): > 2.56 µM
- IC50 (LK-2): > 2.56 µM
- IC50 (8305C): > 2.56 µM
- IC50 (NTERA-2-cl-D1): > 2.56 µM
- IC50 (EFM-19): > 2.56 µM
- IC50 (NCI-H747): > 2.56 µM
- IC50 (U-266): > 2.56 µM
- IC50 (RKO): > 2.56 µM
- IC50 (CGTH-W-1): > 2.56 µM
- IC50 (CAL-27): > 2.56 µM
- IC50 (M14): > 2.56 µM
- IC50 (CTB-1): > 2.56 µM
- IC50 (Lu-65): > 2.56 µM
- IC50 (HDLM-2): > 2.56 µM
- IC50 (SW1463): > 2.56 µM
- IC50 (NCI-H2342): > 2.56 µM
- IC50 (NCI-N87): > 2.56 µM
- IC50 (CaR-1): > 2.56 µM
- IC50 (MKN-1): > 2.56 µM
- IC50 (SW13): > 2.56 µM
- IC50 (ES5): > 2.56 µM
- IC50 (RCC10RGB): > 2.56 µM
